# Source: patent publication US9695155B2, “Herbicidal substituted pyrimidinyloxy benzene compounds” (E. I. DU PONT DE NEMOURS AND COMPANY, priority 2013, dated 2017)
# Tests used:
# [1] = test system: palmer pigweed; test: Test E postemergence; assay type: in vivo, Amaranthus palmeri
# In short: (§1)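 Test chemicals formulated in a non-phytotoxic solvent mixture containing a surfactant were applied preemergence to seeds in silt loam soil or postemergence to plants at the 1- to 4-leaf stage in potting mix. After 14 to 21 days in a greenhouse, injury was visually rated against controls on a 0-100 scale (0 = no effect, 100 = complete control).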
# [2] = test system: corn; test: Test E postemergence; assay type: in vivo, Zea mays
# In short: as §1
# [3] = test system: barnyardgrass; test: Test E postemergence; assay type: in vivo, Echinochloa crus-galli
# In short: as §1
# [4] = test system: fall panicum; test: Test E postemergence; assay type: in vivo, Panicum dichotomiflorum
# Description: Seeds of plant species selected from corn (Zea mays), soybean (Glycine max), velvetleaf (Abutilon theophrasti), lambsquarters (Chenopodium album), wild poinsettia (Euphorbia heterophylla), palmer pigweed (Amaranthus palmeri), waterhemp (common waterhemp, Amaranthus rudis), surinam grass (Brachiaria decumbens), large (Lg) crabgrass (Digitaria sanguinalis), Brazilian crabgrass (Digitaria horizontalis), fall panicum (Panicum dichotomiflorum), giant foxtail (Setaria faberii), green foxtail (Setaria viridis), goosegrass (Eleusine indica), johnsongrass (Sorghum halepense), ragweed (common ragweed, Ambrosia elatior), barnyardgrass (Echinochloa crus-galli), sandbur (southern sandbur, Cenchrus echinatus), arrowleaf sida (Sida rhombifolia), Italian ryegrass (Lolium multiflorum), dayflower (Virginia (VA) dayflower, Commelina virginica), field bindweed (Convolvulus arvensis), morningglory (Ipomoea coccinea), nightshade (eastern black nightshade, Solanum ptycanthum), kochia (Kochia scoparia), yellow nutsedge (Cyperus esculentus), cocklebur (common cocklebur, Xanthium strumarium), smartweed (ladysthumb smartweed, and hairy beggarticks (Bidens pilosa), were planted into a silt loam soil and treated preemergence with test chemicals formulated in a non-phytotoxic solvent mixture which included a surfactant.
# At the same time, plants from these crop and weed species and also horseweed (Canada horseweed, Conyza canadensis), waterhemp_RES1, (ALS & Triazine resistant common waterhemp, Amaranthus rudis), and waterhemp_RES2, (ALS & HPPD resistant common waterhemp, Amaranthus rudis) were planted in pots containing Redi-Earth® planting medium (Scotts Company, 14111 Scottslawn Road, Marysville, Ohio 43041) comprising spaghnum peat moss, vermiculite, wetting agent and starter nutrients were treated with postemergence applications of test chemicals formulated in the same manner. Plants ranged in height from 2 to 18 cm for postemergence treatments (1- to 4-leaf stage). Treated plants and controls were maintained in a greenhouse for 14 to 21 days, after which time all species were compared to controls and visually evaluated. Plant response ratings, summarized in Table E, are based on a scale of 0 to 100 where 0 is no effect and 100 is complete control. A dash (-) response means no test result.
# [5] = test system: rice; test: Test C flooded paddy test; assay type: in vivo, Oryza sativa; details: Flood, scale 0 to 100 (0 no effect, 100 complete control), 13 to 15 days
# In short: (§2)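 Visual injury ratings against untreated controls, taken 13 to 15 days after compound was added to paddy water standing 3 cm above the soil.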
# [6] = test system: barnyardgrass; test: Test C flooded paddy test; assay type: in vivo, Echinochloa crus-galli; details: Flood, scale 0 to 100 (0 no effect, 100 complete control), 13 to 15 days
# In short: as §2
# [7] = test system: ducksalad; test: Test C flooded paddy test; assay type: in vivo, Heteranthera limosa; details: Flood, scale 0 to 100 (0 no effect, 100 complete control), 13 to 15 days
# In short: as §2
# [8] = post-emergence, Postemergence, 31 g ai/ha, scale 0 to 100, read-out: Plant response rating, Pigweed, Palmer
# [9] = post-emergence, Postemergence, 62 g ai/ha, scale 0 to 100, read-out: Plant response rating, Pigweed, Palmer
# [10] = post-emergence, Postemergence, 125 g ai/ha, scale 0 to 100, read-out: Plant response rating, Pigweed, Palmer
# [11] = post-emergence, postemergence, 16 g ai/ha, scale 0 to 100, 0 no effect, 100 complete control, read-out: Plant response rating, Pigweed, Palmer
# [12] = Zea mays, post-emergence, Postemergence, 31 g ai/ha, scale 0 to 100
# [13] = Zea mays, post-emergence, Postemergence, 62 g ai/ha, scale 0 to 100
# [14] = Zea mays, post-emergence, Postemergence, 125 g ai/ha, scale 0 to 100
# [15] = Zea mays, post-emergence, postemergence, 16 g ai/ha, scale 0 to 100, 0 no effect, 100 complete control
# [16] = Echinochloa crus-galli, post-emergence, Postemergence, 31 g ai/ha, scale 0 to 100, read-out: Plant response rating, Barnyardgrass
# [17] = Echinochloa crus-galli, post-emergence, Postemergence, 62 g ai/ha, scale 0 to 100, read-out: Plant response rating, Barnyardgrass
# [18] = Echinochloa crus-galli, post-emergence, Postemergence, 125 g ai/ha, scale 0 to 100, read-out: Plant response rating, Barnyardgrass
# [19] = Echinochloa crus-galli, post-emergence, postemergence, 16 g ai/ha, scale 0 to 100, 0 no effect, 100 complete control, read-out: Plant response rating, Barnyardgrass
# [20] = Panicum dichotomiflorum, post-emergence, Postemergence, 31 g ai/ha, scale 0 to 100, read-out: Plant response rating, Panicum, Fall
# [21] = Panicum dichotomiflorum, post-emergence, Postemergence, 62 g ai/ha, scale 0 to 100, read-out: Plant response rating, Panicum, Fall
# [22] = Panicum dichotomiflorum, post-emergence, Postemergence, 125 g ai/ha, scale 0 to 100, read-out: Plant response rating, Panicum, Fall
# [23] = Panicum dichotomiflorum, post-emergence, postemergence, 16 g ai/ha, scale 0 to 100, 0 no effect, 100 complete control, read-out: Plant response rating, Panicum, Fall
# [24] = Postemergence, 31 g ai/ha, scale 0 to 100
# [25] = Postemergence, 62 g ai/ha, scale 0 to 100
# [26] = Postemergence, 125 g ai/ha, scale 0 to 100
# [27] = postemergence, 8 g ai/ha, scale 0 to 100, 0 no effect, 100 complete control
# [28] = postemergence, 16 g ai/ha, scale 0 to 100, 0 no effect, 100 complete control
smiles,measurement,setting,value
"N#Cc1cccc(Oc2ncc(Cl)cn2)c1-n1cc(OCC(F)(F)F)cn1 [Compound 274, 3-[(5-chloro-2-pyrimidinyl)oxy]-2-[4-(2,2,2-trifluoroethoxy)-1H-pyrazol-1-yl]benzonitrile]",pest or weed control at 31 g/ha,[1]; [8],85%
same,pest or weed control at 62 g/ha,[1]; [9],95%
same,pest or weed control at 125 g/ha,[1]; [10],100%
same,pest or weed control at 8 g/ha,"[1]; post-emergence, postemergence, 8 g ai/ha, scale 0 to 100, 0 no effect, 100 complete control, read-out: Plant response rating, Pigweed, Palmer",70%
same,pest or weed control at 16 g/ha,[1]; [11],65%
same,"corn plant response (injury) rating, 0-100 at 31 g/ha",[2]; [12],10%
same,"corn plant response (injury) rating, 0-100 at 62 g/ha",[2]; [13],10%
same,"corn plant response (injury) rating, 0-100 at 125 g/ha",[2]; [14],15%
same,"corn plant response (injury) rating, 0-100 at 8 g/ha","[2]; Zea mays, post-emergence, postemergence, 8 g ai/ha, scale 0 to 100, 0 no effect, 100 complete control",10%
same,"corn plant response (injury) rating, 0-100 at 16 g/ha",[2]; [15],15%
same,pest or weed control at 31 g/ha,[3]; [16],20%
same,pest or weed control at 62 g/ha,[3]; [17],10%
same,pest or weed control at 125 g/ha,[3]; [18],60%
same,pest or weed control at 8 g/ha,"[3]; Echinochloa crus-galli, post-emergence, postemergence, 8 g ai/ha, scale 0 to 100, 0 no effect, 100 complete control, read-out: Plant response rating, Barnyardgrass",5%
same,pest or weed control at 16 g/ha,[3]; [19],10%
same,pest or weed control at 31 g/ha,[4]; [20],20%
same,pest or weed control at 62 g/ha,[4]; [21],50%
same,pest or weed control at 125 g/ha,[4]; [22],20%
same,pest or weed control at 8 g/ha,"[4]; Panicum dichotomiflorum, post-emergence, postemergence, 8 g ai/ha, scale 0 to 100, 0 no effect, 100 complete control, read-out: Plant response rating, Panicum, Fall",10%
same,pest or weed control at 16 g/ha,[4]; [23],15%
Clc1cnc(Oc2ccccc2-n2cc(Br)nn2)nc1 [Compound 223],"Plant response rating, Pigweed, Palmer",[1]; [24],50
same,"Plant response rating, Pigweed, Palmer",[1]; [25],60
same,"Plant response rating, Pigweed, Palmer",[1]; [26],85
same,"Plant response rating, Pigweed, Palmer",[1]; [27],15
same,"Plant response rating, Pigweed, Palmer",[1]; [28],25
same,"Plant response rating, Corn",[2]; [24],0
same,"Plant response rating, Corn",[2]; [25],0
same,"Plant response rating, Corn",[2]; [26],5
same,"Plant response rating, Corn",[2]; [27],0
same,"Plant response rating, Corn",[2]; [28],0
same,"Plant response rating, Barnyardgrass",[3]; [24],0
same,"Plant response rating, Barnyardgrass",[3]; [25],0
same,"Plant response rating, Barnyardgrass",[3]; [26],0
same,"Plant response rating, Barnyardgrass",[3]; [27],0
same,"Plant response rating, Barnyardgrass",[3]; [28],0
same,"Plant response rating, Panicum, Fall",[4]; [24],0
same,"Plant response rating, Panicum, Fall",[4]; [25],0
same,"Plant response rating, Panicum, Fall",[4]; [26],0
same,"Plant response rating, Panicum, Fall",[4]; [27],0
same,"Plant response rating, Panicum, Fall",[4]; [28],0
"N#Cc1cccc(Oc2ncc(F)cn2)c1-n1cc(C(F)(F)F)cn1 [Compound 79, 3-[(5-fluoro-2-pyrimidinyl)oxy]-2-[4-(trifluoromethyl)-1H-pyrazol-1-yl]benzonitrile]",pest or weed control at 31 g/ha,[1]; [8],50%
same,pest or weed control at 62 g/ha,[1]; [9],95%
same,pest or weed control at 125 g/ha,[1]; [10],90%
same,pest or weed control at 16 g/ha,[1]; [11],50%
same,"corn plant response (injury) rating, 0-100 at 31 g/ha",[2]; [12],0%
same,"corn plant response (injury) rating, 0-100 at 62 g/ha",[2]; [13],10%
same,"corn plant response (injury) rating, 0-100 at 125 g/ha",[2]; [14],15%
same,"corn plant response (injury) rating, 0-100 at 16 g/ha",[2]; [15],0%
same,pest or weed control at 31 g/ha,[3]; [16],0%
same,pest or weed control at 62 g/ha,[3]; [17],10%
same,pest or weed control at 125 g/ha,[3]; [18],20%
same,pest or weed control at 16 g/ha,[3]; [19],0%
same,pest or weed control at 31 g/ha,[4]; [20],35%
same,pest or weed control at 62 g/ha,[4]; [21],30%
same,pest or weed control at 125 g/ha,[4]; [22],30%
same,pest or weed control at 16 g/ha,[4]; [23],20%
FC(F)(F)c1cnn(-c2c(Br)cccc2Oc2ncc(Cl)cn2)c1 [Compound 191],"Plant response rating, Pigweed, Palmer",[1]; [24],75
same,"Plant response rating, Pigweed, Palmer",[1]; [25],75
same,"Plant response rating, Pigweed, Palmer",[1]; [26],85
same,"Plant response rating, Pigweed, Palmer",[1]; [27],20
same,"Plant response rating, Pigweed, Palmer",[1]; [28],40
same,"Plant response rating, Corn",[2]; [24],10
same,"Plant response rating, Corn",[2]; [25],10
same,"Plant response rating, Corn",[2]; [26],15
same,"Plant response rating, Corn",[2]; [27],0
same,"Plant response rating, Corn",[2]; [28],0
same,"Plant response rating, Rice",[5]; 31 g ai/ha,0
same,"Plant response rating, Rice",[5]; 62 g ai/ha,0
same,"Plant response rating, Rice",[5]; 125 g ai/ha,0
same,"Plant response rating, Rice",[5]; 250 g ai/ha,0
same,"Plant response rating, Barnyardgrass",[3]; [24],0
same,"Plant response rating, Barnyardgrass",[3]; [25],0
same,"Plant response rating, Barnyardgrass",[3]; [26],0
same,"Plant response rating, Barnyardgrass",[3]; [27],0
same,"Plant response rating, Barnyardgrass",[3]; [28],0
same,"Plant response rating, Panicum, Fall",[4]; [24],5
same,"Plant response rating, Panicum, Fall",[4]; [25],10
same,"Plant response rating, Panicum, Fall",[4]; [26],20
same,"Plant response rating, Panicum, Fall",[4]; [27],0
same,"Plant response rating, Panicum, Fall",[4]; [28],0
same,"Plant response rating, Barnyardgrass",[6]; 31 g ai/ha,0
same,"Plant response rating, Barnyardgrass",[6]; 62 g ai/ha,0
same,"Plant response rating, Barnyardgrass",[6]; 125 g ai/ha,0
same,"Plant response rating, Barnyardgrass",[6]; 250 g ai/ha,20
same,"Plant response rating, Ducksalad",[7]; 31 g ai/ha,30
same,"Plant response rating, Ducksalad",[7]; 62 g ai/ha,50
same,"Plant response rating, Ducksalad",[7]; 125 g ai/ha,75
same,"Plant response rating, Ducksalad",[7]; 250 g ai/ha,80
